Results on 25 compounds are retold here after patent US3957850A, “Phenylacetic acid derivatives” (priority 1971, dated 1976).

A short description of series [1]: Acute toxicity determination, oral LD50 by method of BEHRENS and KARBER. To be noted: mouse, in vivo, female Swiss mice, 48 hours observation. The method, then: Acute toxicity tests were carried out with lots of 10 female mice of "Swiss" strain, weighing from 19 to 21 g.
The means lethal dose (LD50) by the oral route was determined by means of the method of BEHRENS and KARBER after keeping the animals under observation during 48 hours. In this table are also set forth the LD50 of acetylsalicylic acid and of indometacine used as reference materials.

Series [2] relates to peritoneal pain induced by injection of acetic acid. Nature of the series: Analgesic activity: inhibition test of the peritoneal pain induced by injection of acetic acid (writhing). It counts as in vivo, mice. The settings on record: Mus musculus, read-out: % analgesia. Here is the method: The analgesic activity was determined by the inhibition test of the peritoneal pain induced by injection of acetic acid.
The materials having an analgesic action reduce or eliminate this syndrome.
Lots of 10 mice are given orally the various test compounds, 30 minutes prior to injection of the challenging material. The writhing movements are counted during 15 minutes and the analgesic effect is expressed as percent decrease of the number of stretching movements with respect to the reference animals.
The same test was carried out with acetylsalicylic acid.

The subject of series [3] is carragheenin-induced edema of the paws. The series can be described thus: Anti-inflammatory activity: test of the carragheenin-induced edema of the paws in rats. Type of series: in vivo. The settings on record: Rattus norvegicus, 1 h, read-out: % inhibition of inflammation; for inhibition in vivo at 67 mg/kg: 67 mg/kg (about 1/36 of LD50); for inhibition in vivo at 33 mg/kg: 33 mg/kg (about 1/36 of LD50); for inhibition in vivo at 50 mg/kg: 50 mg/kg (about 1/36 of LD50). Here is the method:
The anti-inflammatory activity was determined by means of the test of the carragheenin-induced edema of the pawsin rats.
Male rats weighing about 120 g are administered 0.1 ml of an 0.5% carragheenin suspension (plantar sub-aponeurotic injection) one hour after oral treatment with the various test compounds.
The volume of the rear paws is measured prior to injection of the inflammatory agent, and then 2, 3 and 4 hours after injection.
The difference between the volume of the paws of the treated animals and the volume of the paws of the reference animals evidences the anti-inflammatory action of the various test compounds.
The same test was carried out with indometacine.

Setting [4] is: mice, oral, 30 minutes before acetic acid.
[5] abbreviates: male rats, oral, one hour before carragheenin.
Setting [6] is: male rats, oral, 81 mg/kg (about 1/36 of LD50), one hour before carragheenin.

Structures are written as SMILES. Where two headings read alike, the source gives them in different places.

As for `CC(C)Nc1ccc(C(C)C(=O)O)cc1` (stereo not shown) [2-(p-isopropylaminophenyl)propionic acid, 2-(p-Isopropylaminophenyl)-propionic acid], the LD50 (in general, the dose at which mortality reaches 50%) at 48 h in series [1] worked out at 2400 mg/kg. The inhibition in vivo at 27 mg/kg in series [2] (setting [4]) was determined as 56%. Further, in series [3] (setting [5]), the inhibition in vivo at 67 mg/kg came out at 44%.
For `C=C(C)CNc1ccc(C(C)C(=O)OC)cc1.Cl` (stereo not shown) [Methyl 2-(p-methallylaminophenyl)-propionate hydrochloride] the same measures were 2400 mg/kg, 49% and 46%.
In turn, `CCCNc1ccc(C(C)C(=O)O)cc1` (stereo not shown) [2-(p-n-propylaminophenyl)-propionic acid, 2-(p-n-Propylaminophenyl)propionic acid] came in with an LD50 at 48 h in series [1] of 2400 mg/kg. For the same compound, the inhibition in vivo at 13.5 mg/kg in series [2] (setting [4]) stood at 61%. The inhibition in vivo at 67 mg/kg in series [3] (setting [5]) came out at 47%.
Compound `C=CCNc1ccc(CC(=O)O)cc1` [p-allylaminophenylacetic acid, p-Allylaminophenylacetic acid] came in with an LD50 at 48 h in series [1] of 1550 mg/kg. Further, the inhibition in vivo at 100 mg/kg in series [2] (mice, oral, 100 mg/kg, 30 minutes before acetic acid) came out at 51%. Further, the inhibition in vivo at 45 mg/kg in series [3] (male rats, oral, 45 mg/kg (about 1/36 of LD50), one hour before carragheenin) is 32%.
For `C=C(C)CNc1ccc(CC(=O)OCC)cc1` [ethyl p-methallylaminophenylacetate, Ethyl p-methallylaminophenylacetate], the LD50 at 48 h in series [1] is 2400 mg/kg. Moreover, the inhibition in vivo at 67 mg/kg in series [2] (setting [4]) stood at 51%; in series [3] (setting [5]) it was 38%.
On to `C#CCNc1ccc(C(C)C(=O)O)cc1` (stereo not shown) [2-(p-propargylaminophenyl)propionic acid, 2-(p-Propargylaminophenyl)-propionic acid], for which the LD50 at 48 h in series [1] was 2400 mg/kg. Besides, the inhibition in vivo at 13.5 mg/kg in series [2] (setting [4]) is 55%. Moreover, in series [3] (setting [5]), the inhibition in vivo at 67 mg/kg stood at 47%.
Take `C=CCNc1ccc(C(C)C(=O)[O-])cc1.[Li+]` (stereo not shown) [lithium salt]: the inhibition in vivo at 81 mg/kg was found to be 28% in series [2] (po) and 59% in series [3] (po).
As to `CCNc1ccc(CC(=O)O)cc1` [p-ethylaminophenylacetic acid, p-Ethylaminophenylacetic acid], the LD50 at 48 h in series [1] came to 2910 mg/kg. In addition, the inhibition in vivo at 16 mg/kg in series [2] (mice, oral, 16 mg/kg, 30 minutes before acetic acid) worked out at 37.5%. The inhibition in vivo at 81 mg/kg in series [3] (setting [6]) amounted to 23%.
Turning to `CCCCNc1ccc(C(C)C(=O)O)cc1` (stereo not shown) [2-(p-n-butylaminophenyl)propionic acid, 2-(p-n-Butylaminophenyl)propionic acid], in series [1], the LD50 at 48 h was 1200 mg/kg. Moreover, the inhibition in vivo at 13 mg/kg in series [2] (mice, oral, 13 mg/kg, 30 minutes before acetic acid) was 50%. In addition, the inhibition in vivo at 33 mg/kg in series [3] (setting [5]) was 33%.
Compound `CCCNc1ccc(CC(=O)O)cc1` [p-n-propylaminophenylacetic acid, p-n-Propylaminophenylacetic acid] registered an LD50 at 48 h in series [1] of 2400 mg/kg. Moreover, the inhibition in vivo at 27 mg/kg in series [2] (setting [4]) came to 49%. Moreover, the inhibition in vivo at 67 mg/kg in series [3] (setting [5]) amounted to 38%.
For the compound `C=CCNc1ccc(CC(=O)OCC)cc1` [ethyl p-allylaminophenylacetate, Ethyl para-allylaminophenylacetate], in series [1], the LD50 at 48 h came to 2400 mg/kg. Further, the inhibition in vivo at 67 mg/kg in series [2] (setting [4]) turned out to be 41%; in series [3] (setting [5]), 39%.
Regarding `CC(C)Nc1ccc(CC(=O)O)cc1` [p-isopropylaminophenylacetic acid, p-Isopropylaminophenylacetic acid], the LD50 at 48 h in series [1] worked out at 2400 mg/kg. Moreover, the inhibition in vivo at 13.5 mg/kg in series [2] (setting [4]) is 42%. Moreover, the inhibition in vivo at 67 mg/kg in series [3] (setting [5]) was found to be 42%.
Regarding `C=C(C)CNc1ccc(CC(=O)O)cc1` [p-methallylaminophenylacetic acid, p-Methallylaminophenylacetic acid], in series [1], the LD50 at 48 h was 1780 mg/kg. In addition, the inhibition in vivo at 49 mg/kg worked out at 32% in series [2] (mice, oral, 49 mg/kg, 30 minutes before acetic acid) and 25% in series [3] (male rats, oral, 49 mg/kg (about 1/36 of LD50), one hour before carragheenin).
Turning to `C=CCNc1ccc(C(C)C(=O)OC)cc1` (stereo not shown) [methyl 2-(p-allylaminophenyl)propionate, Methyl 2-(p-allylaminophenyl)-propionate], in series [1], the LD50 at 48 h was 1600 mg/kg. Further, the inhibition in vivo at 25 mg/kg in series [2] (mice, oral, 25 mg/kg, 30 minutes before acetic acid) was determined as 57%. Also, in series [3] (setting [5]), the inhibition in vivo at 50 mg/kg was 35%.
`COc1ccc2c(c1)c(CC(=O)O)c(C)n2C(=O)c1ccc(Cl)cc1` [indometacine, reference compound] returned an LD50 at 48 h in series [1] of 50 mg/kg. Moreover, the inhibition in vivo at 5 mg/kg in series [3] (po) worked out at 37%.
`C#CCNc1ccc(CC(=O)O)cc1` [p-propargylaminophenylacetic acid] yielded an LD50 at 48 h in series [1] of 2910 mg/kg. Moreover, in series [2] (setting [4]), the inhibition in vivo at 36 mg/kg stood at 51%. Also, the inhibition in vivo at 81 mg/kg in series [3] (setting [6]) amounted to 18%.
For `CNc1ccc(C(C)C(=O)O)cc1` (stereo not shown) [2-(p-methylaminophenyl)propionic acid, 2-(p-Methylaminophenyl)propionic acid], the LD50 at 48 h in series [1] is > 3200 mg/kg. Besides, the inhibition in vivo at 36 mg/kg in series [2] (setting [4]) is 60%. Moreover, in series [3] (male rats, oral, 89 mg/kg (about 1/36 of LD50), one hour before carragheenin), the inhibition in vivo at 89 mg/kg came to 44%.
Take `C=CCNc1ccc(C(C)C(=O)O)cc1` (stereo not shown) [2-(p-allylaminophenyl)propionic acid, 2-(p-Allylaminophenyl)-propionic acid]: the median lethal dose (LD50) at 48 h in series [1] worked out at 1780 mg/kg. Also, in series [2] (mice, oral, 20 mg/kg, 30 minutes before acetic acid), the inhibition in vivo at 20 mg/kg stood at 50%. Further, the inhibition in vivo at 50 mg/kg in series [3] (setting [5]) is 50%.
In series [1], `CC(C(=O)O)c1ccc(NCc2ccccc2)cc1` (stereo not shown) [2-(p-benzylaminophenyl)propionic acid] displayed an LD50 at 48 h of 880 mg/kg. Moreover, the inhibition in vivo at 10 mg/kg in series [2] (mice, oral, 10 mg/kg, 30 minutes before acetic acid) came out at 47%. In addition, the inhibition in vivo at 25 mg/kg in series [3] (male rats, oral, 25 mg/kg (about 1/36 of LD50), one hour before carragheenin) came to 12%.
In series [1], `C=CCNc1ccc(C(C)C(=O)[O-])cc1.[Li+]` (stereo not shown) returned an LD50 at 48 h of 2910 mg/kg.
In series [1], `CCNc1ccc(C(C)C(=O)O)cc1` (stereo not shown) [2-(p-ethylaminophenyl)propionic acid, 2-(p-Ethylaminophenyl)propionic acid] yielded an LD50 at 48 h of 2400 mg/kg. Moreover, the inhibition in vivo at 27 mg/kg in series [2] (setting [4]) was determined as 44%. Besides, in series [3] (setting [5]), the inhibition in vivo at 67 mg/kg is 47%.
`CC(=O)Oc1ccccc1C(=O)O` [acetylsalicylic acid, reference compound] gave an LD50 at 48 h in series [1] of 1500 mg/kg. Moreover, the inhibition in vivo at 100 mg/kg in series [2] (po) was 55%.
Take `CCCCNc1ccc(CC(=O)O)cc1` [p-n-butylaminophenylacetic acid, p-n-Butylaminophenylacetic acid]: the LD50 at 48 h in series [1] was 1200 mg/kg. Also, the inhibition in vivo at 33 mg/kg in series [2] (mice, oral, 33 mg/kg, 30 minutes before acetic acid) was 51%; in series [3] (setting [5]) it was 21%.
In turn, `O=C(O)Cc1ccc(NCc2ccccc2)cc1` [p-benzylaminophenylacetic acid, p-Benzylaminophenylacetic acid] gave an LD50 at 48 h in series [1] of 2400 mg/kg. Further, the inhibition in vivo at 67 mg/kg was 33% in series [2] (setting [4]) and 26% in series [3] (setting [5]).
`C=C(C)CNc1ccc(C(C)C(=O)O)cc1` (stereo not shown) [2-(p-methallylaminophenyl)propionic acid, 2-(p-Methallylaminophenyl)propionic acid] showed an LD50 at 48 h in series [1] of 2400 mg/kg. The inhibition in vivo at 7 mg/kg in series [2] (mice, oral, 7 mg/kg, 30 minutes before acetic acid) came to 58%. For the same compound, in series [3] (setting [5]), the inhibition in vivo at 67 mg/kg was 51%.
